According to patent EP0222155A1, “5-Fluorouracil derivatives” (TERUMO KABUSHIKI KAISHA trading as TERUMO CORPORATION, priority 1985, dated 1987):
Read-outs that look alike come from different tables or passages of the source.

Experiments:
P388 cells = experiment: Antitumor activity: increase in life survival of mice transplanted i.p. with P388 cells; type: in vivo, CDF₁ mice; details: for ILS (%): intraperitoneally once a day for five days, P388 in CDF₁ mice
Experimental: CDF₁ mice (male, 5 weeks old) were intraperitoneally transplanted with P388 cells at a dose of 1 x 10⁶ cells/mouse.
From the next day of the transplantation, a test compound of the invention in the form of 0.5% carboxymethylcellulose suspension was intraperitoneally administered once a day for consecutive five days. Percent increase in life survival was determined: [formula]

platelet aggregation = experiment: Platelet aggregation-inhibitory activity in platelet-rich plasma; type: cell-based, rabbit; details: Oryctolagus cuniculus
Experimental: From rabbit carotid […] was drawn blood (9 volumes) by means of a syringe containing 3.8% aqueous sodium citrate (1 volume). The blood was centrifuged to obtain platelet-rich plasma (PRP: 550,000/µl). Platelet aggregation-inhibitory activity of a compound of the invention was measure using as an aggregation-inducing agent arachidonic acid or collagen. 50%-inhibition concentration (IC₅₀) against the platelet aggregation caused by arachidonic acid (80 µM) and collagen (30 µg/ml) is shown in Table 2 for representative compounds according to the invention.

[1] = Acute toxicity test, oral administration; details: mouse, in vivo, ICR male mice (7 weeks old), read-out: LD₅₀
Source text: An acute toxicity test was run with ICR male mice (7 weeks old) by an oral administration.

[2] = aggregation caused by arachidonic acid (80 µM), rabbit PRP, read-out: 50%-Inhibition concentration, Arachidonic acid
[3] = aggregation caused by collagen (30 µg/ml), rabbit PRP, read-out: 50%-Inhibition concentration, Collagen

IC50 (platelet aggregation; [2])	IC50 (platelet aggregation; [3])	SMILES	ILS (%) (P388 cells; Dose 10 mg/kg/day)	ILS (%) (P388 cells; Dose 30 mg/kg/day)	ILS (%) (P388 cells; Dose 40 mg/kg/day)	survival days compared with control mice (in words) (P388 cells; Dose 100 mg/kg/day as stated in the text)	IC50 (platelet aggregation; read-out: 50%-Inhibition concentration, Arachidonic acid)	IC50 (platelet aggregation; read-out: 50%-Inhibition concentration, Collagen)	LD50 [1]	ILS (%) (P388 cells; Dose 100 mg/kg/day)
		O=c1[nH]cc(F)c(=O)[nH]1 [Example 5-FU, 5-Fluorouracil]	65.2%	27.4%	-24.8%	survival days shorter than those for control mice	> 1000 µM	> 1000 µM	309 mg/kg	
32 µM	140 µM	CC/C=C\C/C=C\C/C=C\C/C=C\C/C=C\CCCC(=O)OC(C)n1cc(F)c(=O)[nH]c1=O (stereo not drawn) [Example 3, 1-(α-5,8,11,14,17-eicosapentaenoyloxy-α-methyl)methyl-5-fluorouracil]	26.8%	49.2%						82.1%
65 µM	340 µM	CC/C=C\C/C=C\C/C=C\CCCCCCCC(=O)OC(C)n1cc(F)c(=O)[nH]c1=O (stereo not drawn) [Example 1, 1-(α-9,12,15-octadecatrienoyloxy-α-methyl)-methyl-5-fluorouracil]	24.6%	46.8%						80.5%
57 µM	530 µM	CC/C=C\C/C=C\C/C=C\CCCCCCCC(=O)OC(CC)n1cc(F)c(=O)[nH]c1=O (stereo not drawn) [Example 2, 1-(α-9,12,15-octadecatrienoyloxy-α-ethyl)methyl-5-fluorouracil]	27.2%	39.7%						73.8%
